Experiments:
[1] = Liquid; for mass density: 298.15 K, 101.33 kPa; for vapor or sublimation pressure: 313.15 K
[2] = excess molar enthalpy (molar enthalpy of mixing); xn = mol fraction of the nth substance listed; settings: 101 kPa, Liquid, Flow calorimetry

CCCCCl [1-chlorobutane]
[1]
Settings | mass density [kg/m3] | vapor or sublimation pressure [kPa]
– | 880.72 | 25.72

CCCCCl [1-chlorobutane] + CC(=O)N(C)C
[2]
Settings | excess molar enthalpy [kcal/mol]
298.15 K, x2 = 0.06 | 0.0163
298.15 K, x2 = 0.111 | 0.0337
298.15 K, x2 = 0.212 | 0.0583
298.15 K, x2 = 0.312 | 0.0748
298.15 K, x2 = 0.412 | 0.0846
298.15 K, x2 = 0.511 | 0.0868
298.15 K, x2 = 0.61 | 0.0832
298.15 K, x2 = 0.708 | 0.0729
298.15 K, x2 = 0.805 | 0.0559
298.15 K, x2 = 0.902 | 0.0311
298.15 K, x2 = 0.95 | 0.0165
308.15 K, x2 = 0.057 | 0.0163
308.15 K, x2 = 0.106 | 0.0335
308.15 K, x2 = 0.206 | 0.0588
308.15 K, x2 = 0.305 | 0.076
308.15 K, x2 = 0.404 | 0.0865
308.15 K, x2 = 0.503 | 0.0896
308.15 K, x2 = 0.602 | 0.0863
308.15 K, x2 = 0.7 | 0.0758
308.15 K, x2 = 0.799 | 0.0581
308.15 K, x2 = 0.897 | 0.0332
308.15 K, x2 = 0.946 | 0.0172
308.15 K, x2 = 0.966 | 0.0098

CCCCCl [1-chlorobutane] + CN(C)C=O
excess molar enthalpy [kcal/mol], [2]
Settings | 298.15 K | 308.15 K
x2 = 0.056 | 0.0294 | –
x2 = 0.058 | – | 0.028
x2 = 0.106 | 0.0571 | –
x2 = 0.108 | – | 0.0552
x2 = 0.207 | 0.0966 | 0.0956
x2 = 0.306 | – | 0.121
x2 = 0.308 | 0.122 | –
x2 = 0.404 | – | 0.136
x2 = 0.407 | 0.135 | –
x2 = 0.503 | – | 0.139
x2 = 0.507 | 0.136 | –
x2 = 0.602 | – | 0.132
x2 = 0.606 | 0.129 | –
x2 = 0.701 | – | 0.115
x2 = 0.705 | 0.112 | –
x2 = 0.799 | – | 0.087
x2 = 0.803 | 0.0841 | –
x2 = 0.898 | – | 0.048
x2 = 0.901 | 0.0459 | –
x2 = 0.947 | – | 0.0246
x2 = 0.95 | 0.0234 | –
x2 = 0.967 | – | 0.0146

CCCCCCCl [1-chlorohexane]
[1]
Settings | mass density [kg/m3] | vapor or sublimation pressure [kPa]
– | 873.21 | 2.857

CCCCCCCl [1-chlorohexane] + CC(=O)N(C)C
excess molar enthalpy [kcal/mol], [2]
Settings | 298.15 K | 308.15 K
x2 = 0.059 | – | 0.0253
x2 = 0.064 | 0.0251 | –
x2 = 0.108 | – | 0.0488
x2 = 0.113 | 0.0476 | –
x2 = 0.206 | – | 0.0935
x2 = 0.211 | 0.0908 | –
x2 = 0.304 | – | 0.124
x2 = 0.309 | 0.119 | –
x2 = 0.402 | – | 0.144
x2 = 0.407 | 0.137 | –
x2 = 0.501 | – | 0.153
x2 = 0.505 | 0.1458 | –
x2 = 0.6 | – | 0.151
x2 = 0.603 | 0.143 | –
x2 = 0.698 | – | 0.136
x2 = 0.701 | 0.129 | –
x2 = 0.798 | 0.102 | 0.108
x2 = 0.896 | 0.0588 | –
x2 = 0.897 | – | 0.0626
x2 = 0.945 | 0.0315 | –
x2 = 0.947 | – | 0.0335
x2 = 0.967 | – | 0.0201

CCCCCCCl [1-chlorohexane] + CN(C)C=O
[2]
Settings | excess molar enthalpy [kcal/mol]
298.15 K, x2 = 0.058 | 0.0385
298.15 K, x2 = 0.107 | 0.0731
298.15 K, x2 = 0.205 | 0.13
298.15 K, x2 = 0.303 | 0.166
298.15 K, x2 = 0.402 | 0.1917
298.15 K, x2 = 0.5 | 0.2024
298.15 K, x2 = 0.598 | 0.1965
298.15 K, x2 = 0.697 | 0.177
298.15 K, x2 = 0.796 | 0.139
298.15 K, x2 = 0.894 | 0.0803
298.15 K, x2 = 0.944 | 0.0418
308.15 K, x2 = 0.062 | 0.0344
308.15 K, x2 = 0.111 | 0.0755
308.15 K, x2 = 0.208 | 0.133
308.15 K, x2 = 0.305 | 0.172
308.15 K, x2 = 0.403 | 0.1974
308.15 K, x2 = 0.501 | 0.2079
308.15 K, x2 = 0.6 | 0.2027
308.15 K, x2 = 0.699 | 0.182
308.15 K, x2 = 0.798 | 0.143
308.15 K, x2 = 0.897 | 0.0834
308.15 K, x2 = 0.947 | 0.0437
308.15 K, x2 = 0.967 | 0.0258

CCCCCCCCCl [1-chlorooctane]
Settings | mass density [kg/m3]
[1] | 868.98

CCCCCCCCCl [1-chlorooctane] + CC(=O)N(C)C
[2]
Settings | excess molar enthalpy [kcal/mol]
298.15 K, x2 = 0.067 | 0.0325
298.15 K, x2 = 0.117 | 0.0652
298.15 K, x2 = 0.215 | 0.124
298.15 K, x2 = 0.313 | 0.162
298.15 K, x2 = 0.411 | 0.186
298.15 K, x2 = 0.508 | 0.1981
298.15 K, x2 = 0.606 | 0.1962
298.15 K, x2 = 0.703 | 0.179
298.15 K, x2 = 0.8 | 0.146
298.15 K, x2 = 0.897 | 0.0884
298.15 K, x2 = 0.945 | 0.0483
308.15 K, x2 = 0.061 | 0.0323
308.15 K, x2 = 0.11 | 0.0655
308.15 K, x2 = 0.207 | 0.127
308.15 K, x2 = 0.305 | 0.168
308.15 K, x2 = 0.403 | 0.1953
308.15 K, x2 = 0.501 | 0.2089
308.15 K, x2 = 0.6 | 0.2082
308.15 K, x2 = 0.699 | 0.1912
308.15 K, x2 = 0.798 | 0.156
308.15 K, x2 = 0.898 | 0.0946
308.15 K, x2 = 0.948 | 0.0516
308.15 K, x2 = 0.968 | 0.0301

CCCCCCCCCl [1-chlorooctane] + CN(C)C=O
[2]
Settings | excess molar enthalpy [kcal/mol]
298.15 K, x2 = 0.064 | 0.0416
298.15 K, x2 = 0.113 | 0.0863
298.15 K, x2 = 0.21 | 0.163
298.15 K, x2 = 0.308 | 0.212
298.15 K, x2 = 0.405 | 0.2459
298.15 K, x2 = 0.502 | 0.2598
298.15 K, x2 = 0.6 | 0.256
298.15 K, x2 = 0.698 | 0.2337
298.15 K, x2 = 0.795 | 0.189
298.15 K, x2 = 0.893 | 0.117
298.15 K, x2 = 0.942 | 0.0633
308.15 K, x2 = 0.069 | 0.0509
308.15 K, x2 = 0.117 | 0.092
308.15 K, x2 = 0.212 | 0.162
308.15 K, x2 = 0.309 | 0.2192
308.15 K, x2 = 0.406 | 0.2543
308.15 K, x2 = 0.503 | 0.2696
308.15 K, x2 = 0.601 | 0.2665
308.15 K, x2 = 0.699 | 0.2433
308.15 K, x2 = 0.798 | 0.198
308.15 K, x2 = 0.898 | 0.12
308.15 K, x2 = 0.948 | 0.0669
308.15 K, x2 = 0.968 | 0.0399

CC(=O)N(C)C [N,N-dimethylethanamide]
Settings | mass density [kg/m3]
[1] | 936.34

CN(C)C=O [dimethylformamide]
Settings | mass density [kg/m3]
[1] | 943.81
